# Reference: patent US20260274892A1, “MACROCYCLIC BROAD SPECTRUM ANTIBIOTICS” (RQx Pharmaceuticals, Inc., priority 2017, published 2026)
# System: Escherichia coli ATCC 25922
# Assay: Minimum inhibitory concentration (MIC), CLSI broth micro-dilution, E. coli
# Assay type: cell-based
# Settings: Escherichia coli, ATCC25922, 22 h, Table 6, cation adjusted Mueller Hinton Broth + 0.002% Tween-80, 35° C.
# Experimental: In vitro antimicrobial activity of each compound was determined by measuring minimal inhibitor concentrations (MICs) using the broth micro-dilution technique as approved by the Clinical and Laboratory Standards Institute (CLSI) (Methods for Dilution Antimicrobial Susceptibility Tests for Bacteria that Grow Aerobically; Approved Standard-Eighth Edition. CLSI document M07-A8. Wayne, PA: Clinical and Laboratroy Standards; 2009). Antibacterial activity was measure against two strains of bacteria: a Methicillin Resistant Staphylococcus aureus strain USA 200, (S. aureus) and Escherichia coli ATCC 25922 (E. coli), a clinically relevant Gram-negative strain. Cells were inoculated onto plates of Trypyticase Soy Agar or Luria Agar respectively and grown at 35° C. for 20 hours. Inocula suspensions were prepared by scraping cells into 1 mL of testing media (cation adjusted Mueller Hinton Broth supplemented with 0.002% v/v Tween-80) and diluting to a final OD600nm of 0.01.
# Test compounds were prepared in DMSO at a concentration of 10 mg/mL. In protocol 1, the compound stocks were diluted into testing media at a concentration of 64 µg/ml and serial 2-fold dilutions were made in the same media, in 96-well U bottom microtiter dishes, for a total of 10 compound concentrations. In protocol 2, the compound stocks were diluted into testing media at a concentration of 4 µg/mL and serial 2-fold dilutions were made in the same media, in 96-well U bottom microtiter dishes, for a total of 10 compound concentrations. In protocol 3, compound stocks were diluted into testing media at a concentration of 0.5 μg/mL, with serial 2-fold dilutions conducted as described above. In protocol 4, compound stocks were diluted into testing media at a concentration of […], with serial 2-fold dilutions conducted as described above. Inocula suspensions were added to the 2-fold serial dilutions of test compounds to a final density of GD OD600nm of 0.0005 and incubated at 35° C. for 22 hours.
row,SMILES,MIC
1,C[C@@H]1NC(=O)[C@@H](N(C)C(=O)[C@H](CCN)NC(=O)C2C3CC(c4ccc(C(C)(C)C)cc4)CC32)c2ccc(OCCN)c(c2)-c2cc(ccc2OCCN)C[C@@H](C(=O)NCC#N)NC1=O (stereo partly shown) [Compound 488],0.5 µM
2,"Cc1nc(-c2ccc(OC3CCCCC3)cc2)cc(N)c1C(=O)N[C@@H](CCN)C(=O)N(C)[C@@H]1C(=O)N[C@@H](C)C(=O)N[C@H](C(=O)NCC#N)Cc2ccc(OCCN)c(c2)-c2cc1ccc2OCCN (racemic) [Compound 544, rac-(8S,11S,14S)-3,18-bis(2-aminoethoxy)-N-(cyanomethyl)-11-methyl-14-[methyl-[rac-(2S)-4-amino-2-[[4-amino-6-[4-(cyclohexoxy)phenyl]-2-methyl-pyridine-3-carbonyl]amino]butanoyl]amino]-10,13-dioxo-9,12-diazatricyclo[13.3.1.12,6]icosa-1(18),2(20),3,5,15(19),16-hexaene-8-carboxamide]",0.13 µM
3,"Cc1nc(-c2cnc(C(C)(C)C)nc2)nc(C)c1C(=O)N[C@@H](CCN)C(=O)N(C)[C@@H]1C(=O)N[C@@H](C)C(=O)N[C@H](C(=O)NCC#N)Cc2ccc(OCCN)c(c2)-c2cc1ccc2OCCN (racemic) [Compound 540, rac-(8S,11S,14S)-3,18-bis(2-aminoethoxy)-N-(cyanomethyl)-11-methyl-14-[methyl-[rac-(2S)-4-amino-2-[[2-(2-tert-butylpyrimidin-5-yl)-4,6-dimethyl-pyrimidine-5-carbonyl]amino]butanoyl]amino]-10,13-dioxo-9,12-diazatricyclo[13.3.1.12,6]icosa-1(18),2(20),3,5,15(19),16-hexaene-8-carboxamide]",1.5 µM
4,"CCCCOc1c(F)c(F)c(-c2cc(C)c(C(=O)N[C@@H](CCN)C(=O)N(C)[C@@H]3C(=O)N[C@@H](C)C(=O)N[C@H](C(=O)NCC#N)Cc4ccc(OCCN)c(c4)-c4cc3ccc4OCCN)c(C)n2)c(F)c1F (racemic) [Compound 367, rac-(8S,11S,14S)-3,18-bis(2-aminoethoxy)-N-(cyanomethyl)-11-methyl-14-[methyl-[rac-(2S)-4-amino-2-[[6-(4-butoxy-2,3,5,6-tetrafluoro-phenyl)-2,4-dimethyl-pyridine-3-carbonyl]amino]butanoyl]amino]-10,13-dioxo-9,12-diazatricyclo[13.3.1.12,6]icosa-1(18),2(20),3,5,15(19),16-hexaene-8-carboxamide]",0.5 µM

# Same assay, conditions: Escherichia coli, ATCC25922, 22 h, Table 7, cation adjusted Mueller Hinton Broth + 0.002% Tween-80, 35° C.
row,SMILES,MIC
1,"COc1c(NCCN)cc2cc1-c1cc(ccc1O)C[C@@H](C(=O)NCC#N)NC(=O)[C@H](C)NC(=O)[C@H]2N(C)C(=O)[C@H](CCN)NC(=O)c1c(C)nc(-c2ccc(C(C)(C)C)cc2)nc1C [Compound 630, (8S,11S,14S)-14-[[(2S)-4-amino-2-[[2-(4-tert-butylphenyl)-4,6-dimethyl-pyrimidine-5-carbonyl]amino]butanoyl]-methyl-amino]-17-(2-aminoethylamino)-N-(cyanomethyl)-3-hydroxy-18-methoxy-11-methyl-10,13-dioxo-9,12-diazatricyclo[13.3.1.12,6]icosa-1(18),2(20),3,5,15(19),16-hexaene-8-carboxamide]",0.25 µM
2,"CNCCOc1ccc2cc1-c1cc(ccc1O)C[C@@H](C(=O)NCC#N)NC(=O)[C@H](C)NC(=O)[C@H]2N(C)C(=O)[C@H](CCN)NC(=O)c1c(C)nc(-c2ccc(C(C)(C)C)cc2)nc1C (racemic) [Compound 600, rac-(8S,11S,14S)-N-(cyanomethyl)-3-hydroxy-11-methyl-18-[2-(methylamino)ethoxy]-14-[methyl-[rac-(2S)-4-amino-2-[[2-(4-tert-butylphenyl)-4,6-dimethyl-pyrimidine-5-carbonyl]amino]butanoyl]amino]-10,13-dioxo-9,12-diazatricyclo[13.3.1.12,6]icosa-1(18),2(20),3,5,15(19),16-hexaene-8-carboxamide]",0.38 µM
3,"Cc1nc(-c2ccc(C(C)(C)C)cc2)nc(C)c1C(=O)N[C@@H](CNS(N)(=O)=O)C(=O)N(C)[C@@H]1C(=O)N[C@@H](C)C(=O)N[C@H](C(=O)NCC#N)Cc2ccc(OCCCN)c(c2)-c2cc1ccc2OCCCN (racemic) [Compound 575, rac-(8S,11S,14S)-3,18-bis(3-aminopropoxy)-N-(cyanomethyl)-11-methyl-14-[methyl-[rac-(2S)-2-[[2-(4-tert-butylphenyl)-4,6-dimethyl-pyrimidine-5-carbonyl]amino]-3-(sulfamoylamino)propanoyl]amino]-10,13-dioxo-9,12-diazatricyclo[13.3.1.12,6]icosa-1(18),2(20),3,5,15(19),16-hexaene-8-carboxamide]",0.31 µM
4,"Cc1nc(-c2ccc(OC3CCCCC3)cc2)nc(C)c1C(=O)N[C@@H](CCNS(N)(=O)=O)C(=O)N(C)[C@@H]1C(=O)N[C@@H](C)C(=O)N[C@H](C(=O)NCC#N)Cc2ccc(O)c(c2)-c2cc1ccc2OCCN (racemic) [Compound 615, rac-(8S,11S,14S)-18-(2-aminoethoxy)-N-(cyanomethyl)-3-hydroxy-11-methyl-14-[methyl-[rac-(2S)-2-[[2-[4-(cyclohexoxy)phenyl]-4,6-dimethyl-pyrimidine-5-carbonyl]amino]-4-(sulfamoylamino)butanoyl]amino]-10,13-dioxo-9,12-diazatricyclo[13.3.1.12,6]icosa-1(18),2(20),3,5,15(19),16-hexaene-8-carboxamide]",1 µM
5,"Cc1nc(-c2ccc(OC3CCCCC3)cc2)nc(C)c1C(=O)N[C@@H](CNS(N)(=O)=O)C(=O)N(C)[C@@H]1C(=O)N[C@@H](C)C(=O)N[C@H](C(=O)NCC#N)Cc2ccc(OCCN)c(c2)-c2cc1ccc2O (racemic) [Compound 616, rac-(8S,11S,14S)-3-(2-aminoethoxy)-N-(cyanomethyl)-18-hydroxy-11-methyl-14-[methyl-[rac-(2S)-2-[[2-[4-(cyclohexoxy)phenyl]-4,6-dimethyl-pyrimidine-5-carbonyl]amino]-3-(sulfamoylamino)propanoyl]amino]-10,13-dioxo-9,12-diazatricyclo[13.3.1.12,6]icosa-1(18),2(20),3,5,15(19),16-hexaene-8-carboxamide]",0.5 µM

# Same assay, conditions: Escherichia coli, ATCC25922, Table 6, cation adjusted Mueller Hinton Broth + 0.002% Tween-80, 35° C., 22 hours
row,SMILES,MIC
1,"Cc1nc(-c2ccc(OC3CCCCC3)cc2)nc(C)c1C(=O)N[C@@H](CCNC=O)C(=O)N(C)[C@@H]1C(=O)N[C@@H](C)C(=O)N[C@H](C(=O)NCC#N)Cc2ccc(OCCN)c(c2)-c2cc1ccc2OCCN (racemic) [Compound 504, rac-(8S,11S,14S)-3,18-bis(2-aminoethoxy)-N-(cyanomethyl)-11-methyl-14-[methyl-[rac-(2S)-2-[[2-[4-(cyclohexoxy)phenyl]-4,6-dimethyl-pyrimidine-5-carbonyl]amino]-4-formamido-butanoyl]amino]-10,13-dioxo-9,12-diazatricyclo[13.3.1.12,6]icosa-1(18),2(20),3,5,15(19),16-hexaene-8-carboxamide]",0.75 µM
2,"Cc1c(Oc2ccc(C(C)(C)C)cc2)ccc(C(=O)N[C@@H](CCN)C(=O)N(C)[C@@H]2C(=O)N[C@@H](C)C(=O)N[C@H](C(=O)NCC#N)Cc3ccc(OCCN)c(c3)-c3cc2ccc3OCCN)c1C (racemic) [Compound 374, rac-(8S,11S,14S)-3,18-bis(2-aminoethoxy)-N-(cyanomethyl)-11-methyl-14-[methyl-[rac-(2S)-4-amino-2-[[4-(4-tert-butylphenoxy)-2,3-dimethyl-benzoyl]amino]butanoyl]amino]-10,13-dioxo-9,12-diazatricyclo[13.3.1.12,6]icosa-1(18),2(20),3,5,15(19),16-hexaene-8-carboxamide]",0.25 µM
3,"C=Cc1ccc(C#Cc2nc(C)c(C(=O)N[C@@H](CCN)C(=O)N(C)[C@@H]3C(=O)N[C@@H](C)C(=O)N[C@H](C(=O)NCC#N)Cc4ccc(OCCN)c(c4)-c4cc3ccc4OCCN)c(C)n2)cc1 (racemic) [Compound 310, rac-(8S,11S,14S)-3,18-bis(2-aminoethoxy)-N-(cyanomethyl)-11-methyl-14-[methyl-[rac-(2S)-4-amino-2-[[4,6-dimethyl-2-[2-(4-vinylphenyl)ethynyl]pyrimidine-5-carbonyl]amino]butanoyl]amino]-10,13-dioxo-9,12-diazatricyclo[13.3.1.12,6]icosa-1(18),2(20),3,5,15(19),16-hexaene-8-carboxamide]",0.53 µM
4,"CCCCCCCCc1ccc(C(=O)N[C@@H](CCCNC(N)=O)C(=O)N(C)[C@@H]2C(=O)N[C@@H](C)C(=O)N[C@H](C(=O)NCC#N)Cc3ccc(OCCN)c(c3)-c3cc2ccc3OCCN)c(C)c1 (racemic) [Compound 450, rac-(8S,11S,14S)-3,18-bis(2-aminoethoxy)-N-(cyanomethyl)-11-methyl-14-[methyl-[rac-(2S)-2-[(2-methyl-4-octyl-benzoyl)amino]-5-ureido-pentanoyl]amino]-10,13-dioxo-9,12-diazatricyclo[13.3.1.12,6]icosa-1(18),2(20),3,5,15(19),16-hexaene-8-carboxamide]",2.1 µM
